Structures can show the parent of a compound that is named as a salt. Where two headings read alike, the source gives them in different places.
What was measured:
[1] = molecular target: T1, Orexin receptor 1 (Homo sapiens, UniProt O43613); assay: biochemical; conditions: for nH (Hill coefficient): human orexin receptor 1 binding
T1 sequence (O43613 1-425): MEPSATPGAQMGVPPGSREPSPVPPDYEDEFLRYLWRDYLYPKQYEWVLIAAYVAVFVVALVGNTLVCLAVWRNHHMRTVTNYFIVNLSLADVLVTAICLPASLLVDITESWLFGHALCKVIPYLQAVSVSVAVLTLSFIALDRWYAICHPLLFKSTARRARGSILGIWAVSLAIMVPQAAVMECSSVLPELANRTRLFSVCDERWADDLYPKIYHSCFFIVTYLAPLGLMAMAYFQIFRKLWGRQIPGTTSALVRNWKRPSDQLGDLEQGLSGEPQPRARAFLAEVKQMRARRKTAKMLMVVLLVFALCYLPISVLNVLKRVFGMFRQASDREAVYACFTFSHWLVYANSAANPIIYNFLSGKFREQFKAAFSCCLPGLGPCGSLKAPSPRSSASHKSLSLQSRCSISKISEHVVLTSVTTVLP
Experimental: (§1) Binding activity was evaluated to assess the selectivity of verapamil on various receptors. The binding activity of the reported receptors was analyzed using the following known methods. Primary screening were performed in duplicate and presented in semi-quantitative data (e.g., IC50, Ki and nH). Where presented, IC50 values were determined by a non-linear, least squares regression analysis using MathIQ™ (ID Bussiness Solutions Ltd., UK). […] Where presented, the Hill coefficient (nH), defining the slope of the competitive binding curve, was calculated using MathIQ™.
(§2) Orexin receptor 1 or 2 binding affinity was examined using the methods disclosed by Kukkonen et al., (2002) Am J Physiol Cell Physiol. 283:C1567-C1591; and Langmead et al., (2004) Br J Pharmacol. 141(2):340-346. […] Pharmacol. 58:254-264; and Spedding. (1984) M. Eur J Pharmacol. 83:211. Somaostatin receptor 2 binding activity was estimated by the method described by Feniuk et al., (1993) Br J Pharmacol. 110:1156-1164. Adenosine receptor binding activity was examined using the method described by Varani et al., (1996) Br J Pharmacol. 117:1693-1701. Bradykinin receptor binding activity was examined using the methods described by Horlick et al., (1999) Immunopharmacology 43(2-3):169-177; and Phagoo et al., (2001) J Pharmacol Exp Ther 298(1):77-85. Calcium channel (N-type) binding activity was examined using the method disclosed by Moresco et al., (1990) Neurobiol of Aging. 11(4):433-436. Cannabinoid receptor binding activity was examined using the method disclosed by Reggio et al., (1998) J Med Chem 41(26):5177-5187. […] Estrogen receptors (including ERα and ERβ) were examined using the method disclosed by Obourn et al., (1993) Biochem 32:6229-6236. GABA receptor (including GABAA and GABAB1A,) binding activity was examined using methods disclosed by Lewin et al., (1989) Mol Pharmacol 35:189-194; Maksay G. (1993) Eur J Pharmacol 246:255-260; Enna and Snyder, (1977) Mol Pharmacol. 13:442-453; Martini et al., (1983) J Neurochem. […] Leptin receptor binding activity was examined using the method disclosed by Fong et al., (1998) Mol Pharmacol 53:234-240. […] 75(6):2590-2601. Tachykinin receptor binding activity was examined using the method disclosed by Patacchini and Maggi, (1995) Arch Int Pharmacodyn. 329:161-184. Vanilloid receptor binding activity was examined using the methods disclosed by Szallasi et al., (1993) J Pharmacol Exp Ther. 267(2):728-733. Melatonin receptor binding activity was examined using the methods disclosed by Beresford et al., (1998) J Pharmacol Exp Ther 285(3):1239-1245; and Paul et al., (1999) J Pharmacol Exp Ther 290(1):334-340. Serotonin receptor binding activity was examined using the methods disclosed by Bonhaus et al., (1995) Br J Pharmacol 115:622-628; and Saucier and Albert (1997) J. Neuorchem 68:1998-2011.

[2] = molecular target: T2, Orexin receptor 2 (Homo sapiens, UniProt O43614); assay: biochemical; conditions: for nH (Hill coefficient): human orexin receptor 2 binding
T2 sequence (O43614 1-444): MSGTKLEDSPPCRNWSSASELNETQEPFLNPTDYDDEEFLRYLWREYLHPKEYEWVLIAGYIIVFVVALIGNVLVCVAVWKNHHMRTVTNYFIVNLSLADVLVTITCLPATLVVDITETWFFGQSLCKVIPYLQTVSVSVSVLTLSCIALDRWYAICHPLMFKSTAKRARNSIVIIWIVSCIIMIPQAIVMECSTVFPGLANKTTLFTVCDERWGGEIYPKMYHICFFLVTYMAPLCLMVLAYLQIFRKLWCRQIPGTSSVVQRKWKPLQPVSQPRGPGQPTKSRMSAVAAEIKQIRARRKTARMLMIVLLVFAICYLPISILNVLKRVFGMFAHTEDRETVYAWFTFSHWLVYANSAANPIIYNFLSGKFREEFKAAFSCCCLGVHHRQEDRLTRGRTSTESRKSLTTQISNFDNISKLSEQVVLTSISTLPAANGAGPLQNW
Experimental: as §1, §2

[3] = test system: Sodium Channel, Site 2; assay: Sodium channel, site 2 binding assay; parameters: species or system rat
[4] = molecular target: Somatostatin receptor 2 (Cavia porcellus, UniProt A0A286XKC5); assay: Somatostatin tissue assay; conditions: guinea pig tissue
Text: (§3) Orexin receptor 1 or 2 binding affinity was examined using the methods disclosed by Kukkonen et al., (2002) Am J Physiol Cell Physiol. 283:C1567-C1591; and Langmead et al., (2004) Br J Pharmacol. 141(2):340-346. […] Pharmacol. 58:254-264; and Spedding. (1984) M. Eur J Pharmacol. 83:211. Somaostatin receptor 2 binding activity was estimated by the method described by Feniuk et al., (1993) Br J Pharmacol. 110:1156-1164. Adenosine receptor binding activity was examined using the method described by Varani et al., (1996) Br J Pharmacol. 117:1693-1701. Bradykinin receptor binding activity was examined using the methods described by Horlick et al., (1999) Immunopharmacology 43(2-3):169-177; and Phagoo et al., (2001) J Pharmacol Exp Ther 298(1):77-85. Calcium channel (N-type) binding activity was examined using the method disclosed by Moresco et al., (1990) Neurobiol of Aging. 11(4):433-436. Cannabinoid receptor binding activity was examined using the method disclosed by Reggio et al., (1998) J Med Chem 41(26):5177-5187. […] Estrogen receptors (including ERα and ERβ) were examined using the method disclosed by Obourn et al., (1993) Biochem 32:6229-6236. […]

[5] = molecular target: Dopamine D2L receptor (Homo sapiens, UniProt P14416)
Text: as §3

[6] = molecular target: N-type calcium channel (Rattus norvegicus, UniProt Q02294); assay: Calcium channel (N-type) binding activity; conditions: data not shown
Text: (§4) Pharmacol. 58:254-264; and Spedding. (1984) M. Eur J Pharmacol. 83:211. […] 11(4):433-436. […] 75(6):2590-2601. […] 329:161-184.

[7] = test system: Serotonin receptor; conditions: data not shown
Experimental: as §1
Orexin receptor 1 or 2 binding affinity was examined using the methods disclosed by Kukkonen et al., (2002) Am J Physiol Cell Physiol. 283:C1567-C1591; and Langmead et al., (2004) Br J Pharmacol. 141(2):340-346. […] Pharmacol. 58:254-264; and Spedding. (1984) M. Eur J Pharmacol. 83:211. Somaostatin receptor 2 binding activity was estimated by the method described by Feniuk et al., (1993) Br J Pharmacol. 110:1156-1164. Adenosine receptor binding activity was examined using the method described by Varani et al., (1996) Br J Pharmacol. 117:1693-1701. Bradykinin receptor binding activity was examined using the methods described by Horlick et al., (1999) Immunopharmacology 43(2-3):169-177; and Phagoo et al., (2001) J Pharmacol Exp Ther 298(1):77-85. […]

[8] = test system: Melatonin receptor; assay: Melatonin receptor binding activity; conditions: data not shown
Text: as §4

Sequence of Somatostatin receptor 2 (A0A286XKC5 1-368): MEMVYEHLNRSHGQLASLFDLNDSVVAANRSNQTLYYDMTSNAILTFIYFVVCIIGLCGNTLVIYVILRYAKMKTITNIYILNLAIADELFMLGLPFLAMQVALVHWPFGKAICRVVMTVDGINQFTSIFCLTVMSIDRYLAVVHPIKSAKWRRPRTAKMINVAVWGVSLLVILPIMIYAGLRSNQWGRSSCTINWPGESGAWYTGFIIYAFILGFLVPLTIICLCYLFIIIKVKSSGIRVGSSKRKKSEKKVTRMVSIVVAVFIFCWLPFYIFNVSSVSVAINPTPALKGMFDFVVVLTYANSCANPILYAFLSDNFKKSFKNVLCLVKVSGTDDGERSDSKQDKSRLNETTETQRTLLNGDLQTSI
Sequence of N-type calcium channel (P54287 whole entry): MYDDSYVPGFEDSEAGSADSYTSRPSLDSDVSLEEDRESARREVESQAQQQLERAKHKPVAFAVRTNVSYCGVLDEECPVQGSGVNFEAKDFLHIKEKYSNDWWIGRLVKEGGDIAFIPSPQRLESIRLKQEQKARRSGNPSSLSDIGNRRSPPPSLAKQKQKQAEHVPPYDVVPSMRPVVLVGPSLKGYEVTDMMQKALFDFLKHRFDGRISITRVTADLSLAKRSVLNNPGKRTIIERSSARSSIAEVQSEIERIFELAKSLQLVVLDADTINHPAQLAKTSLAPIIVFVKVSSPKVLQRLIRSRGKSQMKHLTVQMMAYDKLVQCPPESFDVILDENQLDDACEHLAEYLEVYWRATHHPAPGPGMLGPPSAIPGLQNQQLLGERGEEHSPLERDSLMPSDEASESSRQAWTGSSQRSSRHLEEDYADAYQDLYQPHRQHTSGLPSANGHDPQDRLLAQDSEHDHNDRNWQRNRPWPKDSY
Sequence of N-type calcium channel (P54290 945-1091, further chain): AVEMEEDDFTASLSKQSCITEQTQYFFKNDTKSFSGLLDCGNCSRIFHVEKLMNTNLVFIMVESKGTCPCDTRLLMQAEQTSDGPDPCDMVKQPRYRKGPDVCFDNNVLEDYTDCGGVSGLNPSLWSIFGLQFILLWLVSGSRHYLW
Sequence of N-type calcium channel (Q02294 whole entry): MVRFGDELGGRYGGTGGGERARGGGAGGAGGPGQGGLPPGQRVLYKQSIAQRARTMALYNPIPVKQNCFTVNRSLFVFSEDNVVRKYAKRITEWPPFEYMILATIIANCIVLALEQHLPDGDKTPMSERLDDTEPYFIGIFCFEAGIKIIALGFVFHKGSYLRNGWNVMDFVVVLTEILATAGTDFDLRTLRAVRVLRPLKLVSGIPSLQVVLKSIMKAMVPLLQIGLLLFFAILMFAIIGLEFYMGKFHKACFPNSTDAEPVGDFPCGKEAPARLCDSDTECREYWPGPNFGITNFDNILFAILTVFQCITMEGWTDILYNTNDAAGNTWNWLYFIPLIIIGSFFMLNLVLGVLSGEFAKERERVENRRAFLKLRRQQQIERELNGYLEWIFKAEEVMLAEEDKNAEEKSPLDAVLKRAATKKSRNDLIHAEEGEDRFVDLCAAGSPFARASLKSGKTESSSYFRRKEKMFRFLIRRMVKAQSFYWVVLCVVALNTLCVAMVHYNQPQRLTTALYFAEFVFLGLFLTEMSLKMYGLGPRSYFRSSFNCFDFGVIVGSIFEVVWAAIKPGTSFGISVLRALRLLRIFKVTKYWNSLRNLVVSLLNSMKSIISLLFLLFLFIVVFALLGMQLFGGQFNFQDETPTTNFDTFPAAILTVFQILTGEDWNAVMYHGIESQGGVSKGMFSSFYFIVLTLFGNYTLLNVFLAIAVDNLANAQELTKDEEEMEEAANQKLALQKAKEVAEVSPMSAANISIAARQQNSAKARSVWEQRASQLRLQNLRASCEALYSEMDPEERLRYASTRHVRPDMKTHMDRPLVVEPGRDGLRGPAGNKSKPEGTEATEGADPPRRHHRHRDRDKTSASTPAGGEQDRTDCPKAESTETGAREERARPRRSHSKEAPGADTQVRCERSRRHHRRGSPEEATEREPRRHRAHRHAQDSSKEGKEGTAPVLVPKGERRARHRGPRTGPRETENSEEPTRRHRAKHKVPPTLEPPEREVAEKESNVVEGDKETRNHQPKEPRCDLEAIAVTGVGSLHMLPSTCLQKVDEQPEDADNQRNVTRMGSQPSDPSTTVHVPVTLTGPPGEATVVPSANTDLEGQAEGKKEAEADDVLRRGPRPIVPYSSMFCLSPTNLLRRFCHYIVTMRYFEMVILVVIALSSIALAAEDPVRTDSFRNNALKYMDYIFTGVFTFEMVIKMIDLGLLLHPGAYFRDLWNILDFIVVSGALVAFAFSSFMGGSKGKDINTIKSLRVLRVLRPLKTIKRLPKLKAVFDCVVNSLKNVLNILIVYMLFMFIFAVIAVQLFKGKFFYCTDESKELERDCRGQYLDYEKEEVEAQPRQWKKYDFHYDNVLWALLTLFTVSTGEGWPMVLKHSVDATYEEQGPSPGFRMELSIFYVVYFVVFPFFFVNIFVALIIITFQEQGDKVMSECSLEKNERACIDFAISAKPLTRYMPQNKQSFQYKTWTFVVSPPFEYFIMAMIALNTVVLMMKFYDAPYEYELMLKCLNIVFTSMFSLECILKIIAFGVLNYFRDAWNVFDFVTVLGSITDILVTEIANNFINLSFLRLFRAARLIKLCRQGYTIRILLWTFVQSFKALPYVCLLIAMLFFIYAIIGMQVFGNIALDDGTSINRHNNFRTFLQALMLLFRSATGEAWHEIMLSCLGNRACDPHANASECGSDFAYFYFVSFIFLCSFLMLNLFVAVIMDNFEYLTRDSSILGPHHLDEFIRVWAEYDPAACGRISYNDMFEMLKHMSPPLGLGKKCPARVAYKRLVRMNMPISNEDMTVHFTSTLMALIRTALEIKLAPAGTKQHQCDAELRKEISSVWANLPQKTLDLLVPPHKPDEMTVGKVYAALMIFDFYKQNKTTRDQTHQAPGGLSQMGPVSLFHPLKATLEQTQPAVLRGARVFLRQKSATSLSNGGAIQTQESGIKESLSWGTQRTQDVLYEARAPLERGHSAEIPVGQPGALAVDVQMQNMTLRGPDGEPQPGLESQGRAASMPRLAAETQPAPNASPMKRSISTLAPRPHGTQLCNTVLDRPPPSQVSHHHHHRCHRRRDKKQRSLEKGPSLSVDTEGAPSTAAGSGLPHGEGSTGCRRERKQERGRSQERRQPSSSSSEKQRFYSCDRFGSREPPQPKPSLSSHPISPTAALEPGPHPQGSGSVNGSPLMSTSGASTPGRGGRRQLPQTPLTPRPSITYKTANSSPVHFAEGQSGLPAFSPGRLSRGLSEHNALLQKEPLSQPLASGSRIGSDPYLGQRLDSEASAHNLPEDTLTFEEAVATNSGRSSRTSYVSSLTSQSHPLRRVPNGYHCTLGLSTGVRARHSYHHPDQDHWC
Sequence of N-type calcium channel (P54290 25-944, further chain): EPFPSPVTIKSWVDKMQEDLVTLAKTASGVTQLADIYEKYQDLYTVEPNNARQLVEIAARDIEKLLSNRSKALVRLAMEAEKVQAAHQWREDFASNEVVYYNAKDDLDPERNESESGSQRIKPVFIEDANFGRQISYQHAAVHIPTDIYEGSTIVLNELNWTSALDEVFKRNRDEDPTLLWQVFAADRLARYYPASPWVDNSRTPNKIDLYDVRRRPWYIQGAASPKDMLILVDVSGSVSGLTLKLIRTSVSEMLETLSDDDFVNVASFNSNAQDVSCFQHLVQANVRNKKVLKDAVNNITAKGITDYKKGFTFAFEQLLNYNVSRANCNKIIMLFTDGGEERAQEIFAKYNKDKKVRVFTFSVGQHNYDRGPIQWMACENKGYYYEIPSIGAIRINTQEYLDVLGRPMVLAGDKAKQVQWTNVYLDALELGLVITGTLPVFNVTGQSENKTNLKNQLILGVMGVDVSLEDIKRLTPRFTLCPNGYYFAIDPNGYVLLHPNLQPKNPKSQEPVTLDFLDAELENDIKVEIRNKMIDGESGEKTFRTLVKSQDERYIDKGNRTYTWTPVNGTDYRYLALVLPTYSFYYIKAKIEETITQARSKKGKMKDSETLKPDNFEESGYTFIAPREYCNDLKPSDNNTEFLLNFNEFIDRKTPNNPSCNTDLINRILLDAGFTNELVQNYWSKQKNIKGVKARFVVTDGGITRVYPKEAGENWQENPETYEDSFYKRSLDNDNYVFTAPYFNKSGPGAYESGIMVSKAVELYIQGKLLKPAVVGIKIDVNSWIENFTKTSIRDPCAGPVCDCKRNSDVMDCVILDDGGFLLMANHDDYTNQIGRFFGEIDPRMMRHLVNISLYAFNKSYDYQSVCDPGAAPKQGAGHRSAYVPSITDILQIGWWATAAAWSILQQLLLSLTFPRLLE
Sequence of Dopamine D2L receptor (P14416 whole entry): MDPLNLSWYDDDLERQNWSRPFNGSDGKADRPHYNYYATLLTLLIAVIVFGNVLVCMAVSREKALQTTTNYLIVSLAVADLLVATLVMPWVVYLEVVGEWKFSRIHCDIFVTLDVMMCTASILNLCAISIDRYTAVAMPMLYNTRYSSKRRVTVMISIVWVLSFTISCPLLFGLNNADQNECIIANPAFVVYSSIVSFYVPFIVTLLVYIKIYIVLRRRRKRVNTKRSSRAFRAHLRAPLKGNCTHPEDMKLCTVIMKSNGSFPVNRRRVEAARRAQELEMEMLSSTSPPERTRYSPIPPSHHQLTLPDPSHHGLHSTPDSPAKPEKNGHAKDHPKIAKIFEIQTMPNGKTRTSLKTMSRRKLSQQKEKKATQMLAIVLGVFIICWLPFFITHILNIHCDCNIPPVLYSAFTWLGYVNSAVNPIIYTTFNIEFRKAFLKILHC

Row | SMILES | inhibition at 300 µM [1] [%] | nH (Hill coefficient) [1] | inhibition at 100 µM [2] [%] | nH (Hill coefficient) [2] | % Inhibition ([3]; rat sodium channel site 2, conc. 10 μM) [%] | AG. (%) (agonist) ([4]; conc. 3 μM) | ANT. (%) (antagonist) ([5]; conc. 10 μM) | binding (in words) [6] | binding (in words) [7] | binding (in words) [8] | inhibition at 100 µM [1] [%] | % Inhibition ([3]; rat sodium channel site 2, conc. 3 μM) [%] | AG. (%) (agonist) ([4]; conc. 0.3 μM) | ANT. (%) (antagonist) ([5]; conc. 3 μM)
1 | COc1ccc(CCN(C)CCC[C@](C#N)(c2ccc(OC)c(OC)c2)C(C)C)cc1OC [(R)-(+)-verapamil hydrochloride] | 57 | 1.31 | 56 | 1.81 | 72 | 69 | 58 | significant binding | significant binding | significant binding | – | – | – | –
2 | COc1ccc(CCN(C)CCC[C@@](C#N)(c2ccc(OC)c(OC)c2)C(C)C)cc1OC [(S)-(−)-verapamil hydrochloride] | – | 1.27 | 79 | 1.33 | – | – | – | significant binding | significant binding | significant binding | 58 | 75 | 61 | 66

Reference: US20130210911A1, “METHOD AND COMPOSITION FOR TREATING A DISEASE OR CONDITION RELATED TO OREXIN RECEPTOR 1, OREXIN RECEPTOR 2, SOMATOSTATIN RECEPTOR 2 OR DOPAMINE D2L RECEPTOR” (CENTER LABORATORIES, INC., priority 2009, published 2013)
